Like-named read-outs stand apart in the source and are kept apart here.
What was measured:
USP8 = target: T1, USP8 (Homo sapiens, UniProt P40818); experiment: USP8 activity assay; format: biochemical; conditions: 400 nM Ub-AMC, 630 pM enzyme, pH8.8; pre-incubated 30 minutes at 25° C., 60 minutes at 37° C.; sigmoidal fit; read-out: USP 8
T1 construct: His tag (pFastBac-HT vector) (N); made in house; host or cells: Sf9 or High Five insect cells (baculovirus)
T1 sequence (P40818 1-1118): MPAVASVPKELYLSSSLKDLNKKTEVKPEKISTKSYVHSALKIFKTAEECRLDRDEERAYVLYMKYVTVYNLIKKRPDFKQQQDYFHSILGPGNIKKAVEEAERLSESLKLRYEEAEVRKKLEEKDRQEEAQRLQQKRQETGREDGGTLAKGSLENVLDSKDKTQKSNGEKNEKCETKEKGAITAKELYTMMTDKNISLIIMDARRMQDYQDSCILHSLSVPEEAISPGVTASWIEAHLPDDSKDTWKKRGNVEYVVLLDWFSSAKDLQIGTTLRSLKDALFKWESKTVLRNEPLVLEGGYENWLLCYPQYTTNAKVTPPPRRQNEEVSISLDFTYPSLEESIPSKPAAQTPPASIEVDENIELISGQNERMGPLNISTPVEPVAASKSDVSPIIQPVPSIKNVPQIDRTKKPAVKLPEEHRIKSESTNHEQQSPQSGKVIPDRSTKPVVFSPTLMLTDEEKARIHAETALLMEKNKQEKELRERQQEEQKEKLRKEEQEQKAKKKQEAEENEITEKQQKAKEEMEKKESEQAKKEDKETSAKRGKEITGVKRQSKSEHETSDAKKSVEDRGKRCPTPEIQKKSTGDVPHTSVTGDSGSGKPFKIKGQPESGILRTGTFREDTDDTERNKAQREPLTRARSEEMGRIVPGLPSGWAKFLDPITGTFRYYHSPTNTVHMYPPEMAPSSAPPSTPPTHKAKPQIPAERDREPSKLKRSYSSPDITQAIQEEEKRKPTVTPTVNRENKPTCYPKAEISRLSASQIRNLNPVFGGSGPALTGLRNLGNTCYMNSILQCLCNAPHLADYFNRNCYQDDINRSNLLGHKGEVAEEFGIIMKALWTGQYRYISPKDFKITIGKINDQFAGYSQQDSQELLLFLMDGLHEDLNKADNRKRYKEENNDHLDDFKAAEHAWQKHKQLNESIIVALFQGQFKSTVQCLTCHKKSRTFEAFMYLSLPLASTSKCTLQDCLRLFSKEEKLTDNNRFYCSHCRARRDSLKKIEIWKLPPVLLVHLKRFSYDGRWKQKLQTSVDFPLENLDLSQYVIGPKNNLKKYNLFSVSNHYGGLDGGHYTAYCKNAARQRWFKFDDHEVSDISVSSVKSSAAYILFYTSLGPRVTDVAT
Excerpt: The cDNA encoding USP8 was obtained by PCR amplification from placenta mRNA. USP8 cDNA was subcloned by PCR into a baculovirus expression vector (pFastBac-HT; Invitrogen). A cDNA encoding a mutated USP8 was generated by mutagenic PCR. The corresponding protein encodes a cysteine to alanine substitution at residue 786. The sequences were ascertained by sequencing of the entire open reading frame. Bacmids encoding […] were generated following DH10bac transposition. The corresponding bacmids were transfected. into insect cells (Sf9). Viruses were recovered from culture supernatant and amplified twice. Insect cells (Sf9 or High Five; Invitrogen) were infected for 72 hours. Total cell lysates were harvested and lyzed in lysis buffer (Tris HCl 50 mM pH 7.6; 0.75 % NP40; 500 mM NaCl; 10% glycerol; 1 mM DTT; 10 mM imidazole; Protease Inhibitor Cocktail; AEBSF 20 μg.ml^−1; Aprotinin 10 μg.ml^−1). Proteins were affinity purified on metal affinity resins (Talon Metal affinity resin; BD Biosciences). Bound materials were extensively washed in wash buffer (50 mM Sodium Phosphate pH 7.0; 300 mM NaCl; 10 mM imidazole; 0.5% Triton X-100; 10% glycerol) and eluted from the resin in 250 mM imidazole-containing wash buffer. Proteins were dialyzed in dialysis buffer (Tris HCl pH 7.6 20 mM; NaCl 200 mM; DTT 1 mM; EDTA 1 mM; 10% Glycerol). Proteins purifications were analyzed on 4-12% NuPAGE (Invitrogen).
USP8 was diluted in USP buffer (50 mM Tris HCl; 0.5 mM EDTA; 5 mM DTT; 0.01% Triton X-100; Bovine Serum Albumin 0.05 mg.ml^−1 pH8.8). Compounds stocks (100 mM) were stored at −20° C. in DMSO.
Reactions were performed as duplicates in Black LJL 96 well plates (HE microplates; Molecular Devices; 20 μl final reaction volume).The substrate concentration for USP8 was 400 nM Ub-AMC (Boston Biochem). The concentrations of the enzyme (USP8) in specificity assays was 630 pM. The concentrations were determined in order to perform specificity assays under initial velocities at fixed substrate concentration. Compounds were pre-incubated with enzymes for 30 minutes at 25° C. Reactions were initiated by addition of substrate to the plates containing the enzymes (+/− compounds) diluted in assay buffer. Reactions were incubated for 60 minutes at 37° C. Reactions were stopped by adding acetic acid (100 mM final). Readings were performed on a Pherastar Fluorescent Reader (BMG). λ Emission 380 nm; λ Excitation=460 nm. Data (mean values +/− standard deviation) were analyzed as % of control (no compound) and plotted as percentage versus the Log of the compound concentration using GraphPad (Prism). Data were fitted to a sigmoidal model (variable slope).

[1] = system: HCT116 colon cancer cells; experiment: HCT116 cell viability and proliferation assay (MTS); format: cell-based; conditions: mean of three independent experiments, read-out: HCT116 GI50 D3
Summary of the method: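 HCT116 cells, 10^3 per well, treated 24 h after seeding with eight concentrations from 10 μM to 5 nM (0.5% final DMSO), in triplicate, for 72 h. Viability read by MTS reduction (2 h) at 492 nm. GI50 from sigmoidal variable-slope fit; mean of three independent experiments.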

[2] = Homo sapiens, HCT-116, 72 hours incubation

Row | IC50 (USP8) | GI50 [1, 2] | GI50 ([1]; 72 hours incubation) | Compound
1 | 186 nM | 157 nM |  | CC(C)c1nnc2nc3c(nn12)-c1ccccc1C3=O [Example 1l/B, 3-Isopropyl-1,2,3a,4,10-pentaaza-cyclopenta[b]fluoren-9-one]
2 | 805 nM |  |  | CCc1nnc2nc3c(nn12)C(=O)c1cc(OC)c(OC)cc1-3 [Example 5b/A, 1-Ethyl-6,7-dimethoxy-2,3,4,10,10a-pentaaza-cyclopenta[b]fluoren-9-one]
3 | 104 nM | 594 nM |  | CCCc1nnc2nc3c(nn12)-c1cc(OC)c(OC)cc1C3=O [Example 5c/B, 6,7-Dimethoxy-3-propyl-1,2,3a,4,10-pentaaza-cyclopenta[b]fluoren-9-one]
4 |  | 2250 nM |  | CC(C)c1nnc2nc3c(nn12)C(=O)c1ccccc1-3 [Example 1l/A, 1-lsopropyl-2,3,4,10,10a-pentaaza-cyclopenta[b]fluoren-9-one]
5 | 360 nM | 257 nM |  | CCc1nnc2nc3c(nn12)-c1c(OC)ccc(OC)c1C3=O [Example 6/B, 3-Ethyl-5,8-dimethoxy-1,2,3a,4,10-pentaaza-cyclopenta[b]fluoren-9-one]
6 | 46 nM | 818 nM |  | COc1cc2c(cc1OC)-c1nn3c(C)nnc3nc1C2=O [Example 5a/B, 6,7-Dimethoxy-3-methyl-1,2,3a,4,10-pentaaza-cyclopenta[b]fluoren-9-one]
7 | 347 nM | 1910 nM |  | COCCOCCOCc1nnc2nc3c(nn12)C(=O)c1ccccc1-3 [Example 1n/A, 1-[2-(2-Methoxy-ethoxy)-ethoxymethyl]-2,3,4,10,10a-pentaaza-cyclopenta[b]fluoren-9-one]
8 | 301 nM |  | 361 nM | 6-(7)-Chloro-1-methyl-2,3,4,10,10a-pentaaza-cyclopenta[b]fluoren-9-one [Example 3/A]
9 | 162 nM | 28 nM |  | O=C1c2ccccc2-c2nn3c(C(F)(F)F)nnc3nc21 [Example 1m/B, 3-Trifluoromethyl-1,2,3a,4,10-pentaaza-cyclopenta[b]fluoren-9-one]
10 | 65 nM | 1180 nM |  | CCc1nnc2nc3c(nn12)-c1cc(OC)c(OC)cc1C3=O [Example 5b/B, 3-Ethyl-6,7-dimethoxy-1,2,3a,4,10-pentaaza-cyclopenta[b]fluoren-9-one]

From patent publication US20090181972A1, “Novel Inhibitors of Cysteine Proteases, the Pharmaceutical Compositions Thereof and their Therapeutic Applications” (priority 2005, published 2009)
